Reference: PubChem BioAssay AID2060886 (Molecular Pharmacology Branch, DTP, NCI, 2025)

Tested on: 653999-131-R-J2-PDC complex spheroids, growth inhibition
Assay: Anticancer human tumor 653999-131-R-J2-PDC patient-derived lung adenocarcinoma cell line growth inhibition [RAS]
Conditions: for IC50: curve of first compound; for viability, T/C: stronger effect = lower value
In short: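 Agents were tested in combination matrices in half-log decrements from a top concentration at or near clinical Cmax (10 microM if undetermined). Targets were multi-cell spheroids of tumour lines plus HUVEC and MSC stromal cells.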
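Further: spheroids exposed to the agents for seven days before the readout.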

For `C=CC(=O)N1CCN(c2nc(OCC3CCCN3C)nc3c(F)c(-c4nc(N)cc(C)c4C(F)(F)F)c(Cl)cc23)C(C)C1` (centres undefined) + C#Cc1c(F)ccc2cc(O)cc(-c3ncc4c(N5CC6CCC(C5)N6)nc(OCC56CCCN5CC(F)C6)nc4c3F)c12, which IC50 (second compound 0.0316 µM) is on record?
The IC50 was over 1000 nM.

What about the IC50 (second compound 0.1 µM) of the same compound?
Its IC50 is over 1000 nM.

What about the IC50 (second compound 0.316 µM) of the same compound?
The IC50 was over 1000 nM.

And the IC50 (second compound 1 µM)?
The IC50 was over 1000 nM.

What about the IC50 (second compound 3.16 µM) of the same compound?
Its IC50 is under 3.16 nM.

And the IC50 (second compound 10 µM)?
Its IC50 is under 3.16 nM.

And the viability, T/C (second compound 0.0316 µM, first compound 0.00316 µM)?
The viability, T/C was 117%.

What about the viability, T/C (second compound 0.0316 µM, first compound 0.01 µM) of the same compound?
Its viability, T/C is 91.3%.

And the viability, T/C (second compound 0.0316 µM, first compound 0.0316 µM)?
The viability, T/C was 95.9%.

And the viability, T/C (second compound 0.0316 µM, first compound 0.1 µM)?
The viability, T/C was 82.3%.

And the viability, T/C (second compound 0.0316 µM, first compound 0.316 µM)?
The viability, T/C was 99.1%.

What about the viability, T/C (second compound 0.0316 µM, first compound 1 µM) of the same compound?
The viability, T/C was 85.2%.

What about the viability, T/C (second compound 0.1 µM, first compound 0.00316 µM) of the same compound?
The viability, T/C was 92.7%.

What about the viability, T/C (second compound 0.1 µM, first compound 0.01 µM) of the same compound?
The viability, T/C was 84.1%.

What about the viability, T/C (second compound 0.1 µM, first compound 0.0316 µM) of the same compound?
The viability, T/C was 73.9%.

And the viability, T/C (second compound 0.1 µM, first compound 0.1 µM)?
Its viability, T/C is 78.5%.

What about the viability, T/C (second compound 0.1 µM, first compound 0.316 µM) of the same compound?
The viability, T/C was 83.3%.

What about the viability, T/C (second compound 0.1 µM, first compound 1 µM) of the same compound?
The viability, T/C was 73.1%.

And the viability, T/C (second compound 0.316 µM, first compound 0.00316 µM)?
The viability, T/C was 71.7%.

What about the viability, T/C (second compound 0.316 µM, first compound 0.01 µM) of the same compound?
The viability, T/C was 62.5%.

What about the viability, T/C (second compound 0.316 µM, first compound 0.0316 µM) of the same compound?
Its viability, T/C is 65.6%.

And the viability, T/C (second compound 0.316 µM, first compound 0.1 µM)?
The viability, T/C was 67.8%.

What about the viability, T/C (second compound 0.316 µM, first compound 0.316 µM) of the same compound?
Its viability, T/C is 70.2%.

What about the viability, T/C (second compound 0.316 µM, first compound 1 µM) of the same compound?
Its viability, T/C is 52.8%.

And the viability, T/C (second compound 1 µM, first compound 0.00316 µM)?
Its viability, T/C is 41.5%.

What about the viability, T/C (second compound 1 µM, first compound 0.01 µM) of the same compound?
Its viability, T/C is 63%.

And the viability, T/C (second compound 1 µM, first compound 0.0316 µM)?
The viability, T/C was 54%.

And the viability, T/C (second compound 1 µM, first compound 0.1 µM)?
The viability, T/C was 53.8%.

What about the viability, T/C (second compound 1 µM, first compound 0.316 µM) of the same compound?
Its viability, T/C is 55.4%.

What about the viability, T/C (second compound 1 µM, first compound 1 µM) of the same compound?
Its viability, T/C is 46.5%.

What about the viability, T/C (second compound 3.16 µM, first compound 0.00316 µM) of the same compound?
The viability, T/C was 38%.

And the viability, T/C (second compound 3.16 µM, first compound 0.01 µM)?
The viability, T/C was 55.2%.

And the viability, T/C (second compound 3.16 µM, first compound 0.0316 µM)?
Its viability, T/C is 39%.

What about the viability, T/C (second compound 3.16 µM, first compound 0.1 µM) of the same compound?
Its viability, T/C is 35%.

And the viability, T/C (second compound 3.16 µM, first compound 0.316 µM)?
Its viability, T/C is 43.8%.

And the viability, T/C (second compound 3.16 µM, first compound 1 µM)?
The viability, T/C was 31.4%.

What about the viability, T/C (second compound 10 µM, first compound 0.00316 µM) of the same compound?
The viability, T/C was 24.5%.

What about the viability, T/C (second compound 10 µM, first compound 0.01 µM) of the same compound?
The viability, T/C was 26.7%.

And the viability, T/C (second compound 10 µM, first compound 0.0316 µM)?
The viability, T/C was 20.8%.

And the viability, T/C (second compound 10 µM, first compound 0.1 µM)?
The viability, T/C was 31.9%.

What about the viability, T/C (second compound 10 µM, first compound 0.316 µM) of the same compound?
The viability, T/C was 27%.

What about the viability, T/C (second compound 10 µM, first compound 1 µM) of the same compound?
Its viability, T/C is 29.6%.

What does the source list for `CCc1c2c(nc3ccc(O)cc13)-c1cc3c(c(=O)n1C2)COC(=O)[C@]3(O)CC` + CCn1c(-c2cccnc2C(C)OC)c2c3cc(ccc31)N1CCOC(CC(NC(=O)C(C(C)C)N(C)C(=O)C3(F)CCN(C(=O)C#CC(C)(C)N(C)C)CC3)C(=O)N3CCCC(N3)C(=O)OCC(C)(C)C2)C1?
IC50 (second compound 0.000949 µM): 13.3 nM; IC50 (second compound 0.003 µM): 12.6 nM; IC50 (second compound 0.00949 µM): 14.8 nM; IC50 (second compound 0.03 µM): 10.6 nM; IC50 (second compound 0.0949 µM): 7.78 nM; IC50 (second compound 0.3 µM): 5.63 nM; viability, T/C (second compound 0.000949 µM, first compound 0.000949 µM): 92.6%; viability, T/C (second compound 0.000949 µM, first compound 0.003 µM): 84.4%; viability, T/C (second compound 0.000949 µM, first compound 0.00949 µM): 52%; viability, T/C (second compound 0.000949 µM, first compound 0.03 µM): 35.9%; viability, T/C (second compound 0.000949 µM, first compound 0.0949 µM): 30%; viability, T/C (second compound 0.000949 µM, first compound 0.3 µM): 16.7%; viability, T/C (second compound 0.003 µM, first compound 0.000949 µM): 86%; viability, T/C (second compound 0.003 µM, first compound 0.003 µM): 77.3%; viability, T/C (second compound 0.003 µM, first compound 0.00949 µM): 52.8%; viability, T/C (second compound 0.003 µM, first compound 0.03 µM): 35.9%; viability, T/C (second compound 0.003 µM, first compound 0.0949 µM): 28%; viability, T/C (second compound 0.003 µM, first compound 0.3 µM): 20.4%; viability, T/C (second compound 0.00949 µM, first compound 0.000949 µM): 104%; viability, T/C (second compound 0.00949 µM, first compound 0.003 µM): 84.1%; viability, T/C (second compound 0.00949 µM, first compound 0.00949 µM): 55.2%; viability, T/C (second compound 0.00949 µM, first compound 0.03 µM): 37.8%; viability, T/C (second compound 0.00949 µM, first compound 0.0949 µM): 28.7%; viability, T/C (second compound 0.00949 µM, first compound 0.3 µM): 17.3%; viability, T/C (second compound 0.03 µM, first compound 0.000949 µM): 91.8%; viability, T/C (second compound 0.03 µM, first compound 0.003 µM): 75.7%; viability, T/C (second compound 0.03 µM, first compound 0.00949 µM): 51.9%; viability, T/C (second compound 0.03 µM, first compound 0.03 µM): 31.4%; viability, T/C (second compound 0.03 µM, first compound 0.0949 µM): 22.3%; viability, T/C (second compound 0.03 µM, first compound 0.3 µM): 16.3%; viability, T/C (second compound 0.0949 µM, first compound 0.000949 µM): 90.6%; viability, T/C (second compound 0.0949 µM, first compound 0.003 µM): 66.4%; viability, T/C (second compound 0.0949 µM, first compound 0.00949 µM): 47.5%; viability, T/C (second compound 0.0949 µM, first compound 0.03 µM): 29.9%; viability, T/C (second compound 0.0949 µM, first compound 0.0949 µM): 19.3%; viability, T/C (second compound 0.0949 µM, first compound 0.3 µM): 12.4%; viability, T/C (second compound 0.3 µM, first compound 0.000949 µM): 81%; viability, T/C (second compound 0.3 µM, first compound 0.003 µM): 57.8%; viability, T/C (second compound 0.3 µM, first compound 0.00949 µM): 44.9%; viability, T/C (second compound 0.3 µM, first compound 0.03 µM): 26.3%; viability, T/C (second compound 0.3 µM, first compound 0.0949 µM): 17.6%; viability, T/C (second compound 0.3 µM, first compound 0.3 µM): 11.5%
